Source: patent US20230365589A1, “NOVEL AMINE DERIVATIVES” (Sumitomo Pharma Co., Ltd., priority 2020, published 2023)
Like-named read-outs stand apart in the source and are kept apart here.

Experiments:
Format in all cases: biochemical
DYRK1A = biological target: T1, DYRK1A (Homo sapiens, UniProt Q13627); experiment: Inhibition test on activity of DYRK family, mobility shift assay (MSA): DYRK1A
T1 construct: purchased Carna Biosciences, Inc. 04-130
Protocol: (§1) [Inhibition Test on Activity of DYRK Family (DYRK1A, DYRK1B, DYRK2, and DYRK3)]
(§2) The kinase activity was measured by mobility shift assay (MSA) method using QuickScout Screening Assist™ MSA (commercially available kit manufactured by Carna Biosciences, Inc.). The substrate of the kinase reaction used was an FITC-labeled DYRKtide peptide included in the kit. An assay buffer [20 mM HEPES, 0.01% Triton X-100™, 2 mM dithiothreitol, pH 7.5]was used to create a substrate mixture solution with a substrate (4 μM), MgCl2(20 mM), and ATP (DYRK1A: 100 μM; DYRK1B: 200 μM; DYRK2: 40 μM; and DYRK3: 20 μM). In addition, kinases (DYRK1A: manufactured by Carna Biosciences, Inc., Cat. No. 04-130; DYRK1B: manufactured by Carna Biosciences, Inc., Cat. No. 04-131; DYRK2; manufactured by Carna Biosciences, Inc., Cat. No. 04-132; and DYRK3; manufactured by Carna Biosciences, Inc., Cat. No. 04-133) were diluted with the assay buffer to prepare enzyme solutions (DYRK1A: 0.2 ng/μL; DYRK1B: 0.08 ng/μL; DYRK2: 0.04 ng/μL; and DYRK3: 0.25 ng/μL). The 10 mM solution of the test compound in DMSO was further diluted with DMSO to 10 levels of the concentration (0.00003 mM, 0.0001 mM, 0.0003 mM, 0.001 mM, 0.003 mM, 0.01 mM, 0.03 mM, 0.1 mM, 0.3 mM, and 1 mM), each of which was subjected to 25-fold dilution with the assay buffer to obtain a drug solution (4% DMSO solution). 5 μL of the drug solution or a control solution (4% DMSO-assay buffer), 5 μL of the substrate mixture solution, and 10 μL of the enzyme solution were mixed in the wells of a polypropylene 384-well plate and allowed to react at room temperature for 1 hour, and then the reaction was quenched by adding 60 μL of the termination buffer included in the kit. Subsequently, the quantities of the substrates (S) and the phosphorylated substrate (P) in the reaction solution were measured using LabChip EZ Reader II system (manufactured by Caliper Life Sciences) according to the protocol of the assay kit.
(§3) The heights of the peaks of the “substrate” and the “phosphorylated substrate” were expressed as S and P, respectively, and a blank containing the assay buffer instead of the enzyme solution was also measured.
(§4) The inhibition rate (%) of the test compound was calculated according to the following equation:
(§5) Inhibition rate (%)=(1−(C−A)/(B−A))×100 • wherein, A, B, and C represent P/(P+S) of the blank well, P/(P+S) of the control solution well, and P/(P+S) of the compound-containing well, respectively.
(§6) The IC50 value was calculated via a regression analysis of the inhibition rate and the test compound concentration (logarithmic value).

DYRK2 = biological target: T2, DYRK2 (Homo sapiens, UniProt Q92630); experiment: Inhibition test on activity of DYRK family, mobility shift assay (MSA): DYRK2
T2 construct: purchased Carna Biosciences, Inc. 04-132
T2 sequence (Q92630 74-601 limits assumed): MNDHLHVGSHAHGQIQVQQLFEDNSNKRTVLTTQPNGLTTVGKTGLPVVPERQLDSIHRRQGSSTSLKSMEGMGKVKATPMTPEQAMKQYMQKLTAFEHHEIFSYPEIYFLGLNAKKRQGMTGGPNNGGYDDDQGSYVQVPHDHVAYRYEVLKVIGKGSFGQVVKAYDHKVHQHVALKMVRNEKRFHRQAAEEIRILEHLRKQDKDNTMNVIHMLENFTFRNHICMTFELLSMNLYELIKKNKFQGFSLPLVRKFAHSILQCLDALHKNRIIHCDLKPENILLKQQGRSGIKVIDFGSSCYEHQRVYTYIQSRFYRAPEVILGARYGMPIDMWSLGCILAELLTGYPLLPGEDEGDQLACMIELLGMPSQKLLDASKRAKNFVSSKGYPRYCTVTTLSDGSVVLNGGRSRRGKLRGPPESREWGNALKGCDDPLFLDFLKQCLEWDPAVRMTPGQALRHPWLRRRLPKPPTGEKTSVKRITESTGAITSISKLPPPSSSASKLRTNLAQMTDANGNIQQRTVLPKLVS
Protocol: as §1, §2, §3, §4, §5, §6
(§7) The inhibiting activities of representative compounds of the present invention are shown against DYRK1A, DYRK1B, DYRK2, and DYRK3 in Tables.

DYRK3 = biological target: T3, DYRK3 (Homo sapiens, UniProt O43781); experiment: Inhibition test on activity of DYRK family, mobility shift assay (MSA): DYRK3
T3 construct: purchased Carna Biosciences, Inc. 04-133
T3 sequence (O43781 1-568 isoform O43781-2): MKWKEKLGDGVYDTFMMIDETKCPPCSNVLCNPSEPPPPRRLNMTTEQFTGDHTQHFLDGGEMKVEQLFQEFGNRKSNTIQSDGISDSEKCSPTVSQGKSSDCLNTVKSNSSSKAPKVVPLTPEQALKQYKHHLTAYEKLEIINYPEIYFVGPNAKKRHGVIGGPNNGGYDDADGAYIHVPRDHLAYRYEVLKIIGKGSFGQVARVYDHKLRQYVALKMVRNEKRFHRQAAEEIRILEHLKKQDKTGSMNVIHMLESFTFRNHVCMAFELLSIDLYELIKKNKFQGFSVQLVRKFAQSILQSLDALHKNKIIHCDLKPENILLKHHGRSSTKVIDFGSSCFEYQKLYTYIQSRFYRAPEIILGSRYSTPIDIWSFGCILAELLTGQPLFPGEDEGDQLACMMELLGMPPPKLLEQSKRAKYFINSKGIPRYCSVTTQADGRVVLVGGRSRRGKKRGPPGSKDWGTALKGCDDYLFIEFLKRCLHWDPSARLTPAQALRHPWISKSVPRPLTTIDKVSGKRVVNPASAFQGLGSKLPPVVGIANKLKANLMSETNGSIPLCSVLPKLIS
Protocol: as §1, §2, §3, §4, §5, §6, §7

[1] = read-out: Inhibitory activity DYRK 1A
[2] = read-out: Inhibitory activity DYRK 2
[3] = read-out: Inhibitory activity DYRK 3
[4] = MSA, FITC-labeled DYRKtide peptide, ATP 100 μM, read-out: Inhibitory activity DYRK 1A (IC50 class)
[5] = MSA, FITC-labeled DYRKtide peptide, ATP 40 μM, read-out: Inhibitory activity DYRK 2 (IC50 class)
[6] = MSA, FITC-labeled DYRKtide peptide, ATP 20 μM, read-out: Inhibitory activity DYRK 3 (IC50 class)

Compound	IC50 (DYRK1A; [1]) [nM]	IC50 (DYRK2; [2]) [nM]	IC50 (DYRK3; [3]) [nM]	IC50 (DYRK1A; [4]) [nM]	IC50 (DYRK2; [5]) [nM]	IC50 (DYRK3; [6]) [nM]
C#CCN1C[C@@H]2NC(=O)N(c3nc4c5c(ccc4s3)OCC5)[C@@H]2C1 (racemic) [Example 102, rac-(3aR,6aS)-1-(7,8-dihydrofuro[3,2-e][1,3]benzothiazol-2-yl)-5-(2-propyn-1-yl)hexahydropyrrolo[3,4-d]imidazol-2(1H)-one]	10 to 100	≥ 1000	100 to 1000	–	–	–
N#CCN1C[C@@H]2NC(=O)N(c3nc4c5c(ccc4s3)OCC5)[C@@H]2C1 (racemic) [Example 103, rac-[(3aR,6aS)-1-(7,8-dihydrofuro[3,2-e][1,3]benzothiazol-2-yl)-2-oxohexahydropyrrolo[3,4-d]imidazol-5(1H)-yl]acetonitrile]	10 to 100	≥ 1000	100 to 1000	–	–	–
O=C1N[C@H]2CCCN(C3CC3)C[C@H]2N1c1nc2c3c(ccc2s1)OCC3 (racemic) [Example 104, rac-(3aR,8aS)-5-cyclopropyl-3-(7,8-dihydrofuro[3,2-e][1,3]benzothiazol-2-yl)octahydroimidazo[4,5-c]azepin-2(1H)-one]	< 10	100 to 1000	100 to 1000	–	–	–
C#CCN1CCC[C@@H]2NC(=O)N(c3nc4c5c(ccc4s3)OCC5)[C@@H]2C1 (racemic) [Example 105, rac-(3aR,8aS)-3-(7,8-dihydrofuro[3,2-e][1,3]benzothiazol-2-yl)-5-(2-propyn-1-yl)octahydroimidazo[4,5-c]azepin-2(1H)-one]	10 to 100	≥ 1000	≥ 1000	–	–	–
N#CCN1CCC[C@@H]2NC(=O)N(c3nc4c5c(ccc4s3)OCC5)[C@@H]2C1 (racemic) [Example 106, rac-[(3aR,8aS)-3-(7,8-dihydrofuro[3,2-e][1,3]benzothiazol-2-yl)-2-oxooctahydroimidazo[4,5-c]azepin-5(1H)-yl]acetonitrile]	10 to 100	≥ 1000	100 to 1000	–	–	–
O=C1N[C@H]2CCN(CC(F)(F)F)C[C@H]2N1c1nc2c3c(ccc2s1)OCC3 (racemic) [Example 107, rac-(3aR,7aS)-3-(7,8-dihydrofuro[3,2-e][1,3]benzothiazol-2-yl)-5-(2,2,2-trifluoroethyl)octahydro-2H-imidazo[4,5-c]pyridin-2-one]	10 to 100	≥ 1000	≥ 1000	–	–	–
O=C1N[C@H]2CCN(CC(F)F)C[C@H]2N1c1nc2c3c(ccc2s1)OCC3 (racemic) [Example 108, rac-(3aR,7aS)-5-(2,2-difluoroethyl)-3-(7,8-dihydrofuro[3,2-e][1,3]benzothiazol-2-yl)octahydro-2H-imidazo[4,5-c]pyridin-2-one]	10 to 100	≥ 1000	≥ 1000	–	–	–
O=C1N[C@H]2CCOC[C@H]2N1c1nc2c3c(ccc2s1)OCC3 (racemic) [Example 120, rac-(3aR,7aR)-3-(7,8-dihydrofuro[3,2-e][1,3]benzothiazol-2-yl)hexahydropyrano[3,4-d]imidazol-2(3H)-one]	10 to 100	100 to 1000	100 to 1000	–	–	–
O=C1N[C@H]2COCC[C@H]2N1c1nc2c3c(ccc2s1)OCC3 (racemic) [Example 121, rac-(3aR,7aR)-1-(7,8-dihydrofuro[3,2-e][1,3]benzothiazol-2-yl)hexahydropyrano[3,4-d]imidazol-2(3H)-one]	10 to 100	100 to 1000	100 to 1000	–	–	–
O=C1N[C@H]2CCNC[C@H]2N1c1nc2c3c(ccc2s1)OCC3 (relative stereo) [Example 1, cis-3-(7,8-Dihydrofuro[3,2-e][1,3]benzothiazol-2-yl)octahydro-2H-imidazo[4,5-c]pyridin-2-one]	–	–	–	10 to 100	≥ 1000	100 to 1000
CC(C)N1CC[C@H]2NC(=O)N(c3nc4c5c(ccc4s3)OCC5)[C@H]2C1 (relative stereo) [Example 15, cis-3-(7,8-dihydrofuro[3,2-e][1,3]benzothiazol-2-yl)-5-(propan-2-yl)octahydro-2H-imidazo[4,5-c]pyridin-2-one]	–	–	–	10 to 100	≥ 1000	≥ 1000
CN1CCC[C@@H]2NC(=O)N(c3nc4c5c(ccc4s3)OCC5)[C@@H]2C1 (relative stereo) [Example 17, cis-3-(7,8-dihydrofuro[3,2-e][1,3]benzothiazol-2-yl)-5-methyloctahydroimidazo[4,5-c]azepin-2(1H)-one]	–	–	–	10 to 100	≥ 1000	≥ 1000
CC(=O)N1CC[C@@H]2NC(=O)N(c3nc4c5c(ccc4s3)OCC5)[C@@H]2C1 (relative stereo) [Example 20, cis-5-Acetyl-3-(7,8-dihydrofuro[3,2-e][1,3]benzothiazol-2-yl) octahydro-2H-imidazo[4,5-c]pyridin-2-one]	–	–	–	100 to 1000	> 1000	> 1000
O=C1N[C@@H]2CCN(C3CC3)C[C@@H]2N1c1nc2c3c(ccc2s1)OCCO3 (relative stereo) [Example 31, cis-5-Cyclopropyl-3-(7,8-dihydro[1,4]dioxino[2,3-e][1,3]benzothiazol-2-yl)octahydro-2H-imidazo[4,5-c]pyridin-2-one]	–	–	–	< 10	≥ 1000	≥ 1000
O=C1N[C@@H]2CCN(C3CC3)C[C@@H]2N1c1nc2c3c(ccc2s1)OCCO3 (single isomer, unassigned) [Example 33]	–	–	–	100 to 1000	≥ 1000	≥ 1000
O=C1N[C@@H]2CCN(C3CC3)C[C@@H]2N1c1nc2c3c(ccc2s1)OCO3 (single isomer, unassigned) [Example 35]	–	–	–	≥ 1000	≥ 1000	≥ 1000
O=C1N[C@@H]2CCN(C3CC3)C[C@@H]2N1c1nc2c3c(ccc2s1)OCC3 (single isomer, unassigned) [Example 109]	≥ 1000	≥ 1000	≥ 1000	–	–	–
O=C1N[C@H]2CCN(C3CC3)C[C@H]2N1c1nc2c3c(ccc2s1)OCC3 (single isomer, unassigned) [Example 110]	< 10	≥ 1000	≥ 1000	–	–	–
